Square brackets hold non-standard residues; d marks the D form. Primed or numbered codes have the meaning given here. Peptide text beside a SMILES is read from it. PEG12 = NCCOCCOCCOCCOCCOCCOCCOCCOCCOCCOCCOCCOCCC(=O)O; PEG11′ = not defined here
How the values were obtained:
[1] = system: Non-Small Cell Lung Cancer; assay: Cellular location of MGS, carcinomas and solid tumors; type: cell-based; details: for MSG Code and Cellular Location: Table 2, Intracellular = uptake confirmed, exact compartment not determined; for Cellular Location: Table 3, Carcinomas and Solid Tumors
From the text: (§1) The FOX-Three platform is based on established phage display libraries containing 10^9-10^12 candidate peptide-based MGS members that can be rapidly screened against target cells and subcellular systems to identify specifically targeted MGSs (FIG. 2). Peptides are a well-understood class of biomolecule that are readily synthesized by biological processes and through man-made chemical processes. […] It can be applied to any cell type, regardless of knowledge about the molecular features of that cell, producing a lead MGS in 2-4 weeks. Selected peptide-based MGSs are then readily engineered for optimal performance.
(§2) The FOX-Three Platform has already been validated for targeting of cells and subcellular components. A number of validated MGSs are in various stages of development (Table 1) for a variety of cell targeting systems. Methods of conjugating a variety of payloads to the peptide MGSs have been established without disrupting their targeting ability. […] The FOX-Three screening process was recently refined to include subcellular location targeting as a selection criteria. MGSs have been isolated that accumulate in lysosomes, autophagosomes, and Golgi inside cancer cells, as well as target the plasma membrane.

Lymphoma Cells = assay: Cellular location of MGS, lymphoma and leukemia; type: cell-based; details: Table 2
From the text: as §1

H1993 Cells [2] = assay: siRNA internalization with and without MGS (FIG. 5); type: cell-based; details: SA-647, 5′-Biotinylated siRNA+SA-647, 3′-Biotinylated siRNA+SA-647, alone or conjugated to the MGS
Method: With this objective, novel MGSs were applied to facilitate cell-specific delivery of siRNA. As previously mentioned, these MGSs have the unique ability to bind to specific epithelial-derived cancer cell types, and upon binding, triggers rapid internalization and trafficking to specific subcellular locations. The chemically optimized MGSs have 1-2 nM affinities for their cellular targets, serum stability greater than 48 hours, and approximately 50-1000-fold specificity for targeted cancer cells over normal control cells. […] Internalization experiments were first performed using H1993 cells. For this set of experiments, the group of bars at the far right are 5′-Biotinylated siRNA+SA-647 and 3′-Biotinylated siRNA+SA-647 without MGS. The middle and far left bar groups show SA-647, 5′-Biotinylated siRNA+SA-647, and 3′-Biotinylated siRNA+SA-647 conjugated to a first MGS (SRI_MGS1_V4, right) and a second MGS (SRI_MGS2_V4, middle).

H1993 Cells [3] = assay: SRI_MGS2_V4 uptake profile (effective dose, stoichiometry, rate of uptake); type: cell-based
From the text: (§3) 1. Example 1: Effective Dose, Stoichiometry, and Rate of Uptake for MGS 2

H2009 Cells = assay: as above; type: cell-based
From the text: as §3

H1299 Cells = assay: as above; type: cell-based
From the text: as §3

H358 Cells = assay: as above; type: cell-based
From the text: as §3

Dendritic Cells = assay: Cellular location of MGS, dendritic cells; type: cell-based; details: Table 2
From the text: as §1

[4] = system: Carcinomas and Solid Tumors; assay: In vivo targeting of MGS; details: Table 3; homing to target cell in an animal model
From the text: as §2

Cardiomyocytes = assay: Cellular location of MGS, cardiomyocytes; type: cell-based; details: Table 2
From the text: as §1

Molecule: QEALEEWFWKMMPWSGPSGQ (MGS peptide) [MGS_H1993.3]
- MSG Code and Cellular Location [1]: MGS_H1993.3_Intracellular

Molecule: EAMNSAEQSAAVVQWEKRRI (MGS peptide) [MGS_H460.1]
- MSG Code and Cellular Location [1]: MGS_H460.1_PlasmaMembrane

Molecule: SAKTAVSQRVWLPSHRGGEP (MGS peptide) [MGS_A20.1]
- MSG Code and Cellular Location (Lymphoma Cells): MGS_A20.1_PlasmaMembrane

Molecule: SVEYWGERMYYDVMESLGFS (MGS peptide) [MGS_H1993.1]
- MSG Code and Cellular Location [1]: MGS_H1993.1_Lysosome

Molecule: FAAKRAEWWDPGQLWDAVWN (MGS peptide) [MGS_H1993.2]
- MSG Code and Cellular Location [1]: MGS_H1993.2_Intracellular

Molecule: AHTIDDEWASYHMQQWNSPP (MGS peptide) [MGS_H2009.4]
- MSG Code and Cellular Location [1]: MGS_H2009.4_Golgi/ER

Molecule: TWTDFGQWPWPFGAEGTRAF (MGS peptide) [MGS_H1993.4]
- MSG Code and Cellular Location [1]: MGS_H1993.4_Pre-mitotic cells

Molecule: KSREHVNNSACPSKRITAAL (MGS peptide) [MGS_A20.2]
- MSG Code and Cellular Location (Lymphoma Cells): MGS_A20.2_ Plasma Membrane

Molecule: CH3CO-RGDLATLRQL-PEG11-YC-NH2 (Ac-RGDLATLRQL[PEG11′]YC-NH2) [SRI_MGS1_V4]
- molecules internalized per cell (H1993 Cells [2]): approximately 25000 molecules internalized per cell

Molecule: YPGSPTQYPSSMHEYHSSSE (MGS peptide) [MGS_H2009.3]
- MSG Code and Cellular Location [1]: MGS_H2009.3_Lysosome

Molecule: CC(=O)N[C@@H](Cc1ccc(O)cc1)C(=O)N[C@@H](C)C(=O)N[C@@H](C)C(=O)N[C@@H](Cc1c[nH]c2ccccc12)C(=O)N1CCC[C@H]1C(=O)N[C@@H](C)C(=O)N[C@@H](CO)C(=O)NCC(=O)N[C@@H](C)C(=O)N[C@@H](Cc1c[nH]c2ccccc12)C(=O)N[C@H](C(=O)NCCOCCOCCOCCOCCOCCOCCOCCOCCOCCOCCOCCOCCC(=O)N[C@@H](CS)C(N)=O)[C@@H](C)O [SRI_MGS2_V4, CH3CO-YAAWPASGAWT-PEG11-C-NH2] (Ac-YAAWPASGAWT[PEG12]C-NH2)
- Molecules Internalized, 6 H (H1993 Cells [3]; H1993 cells, 6 H with constant incubation of 20 nM MGS): 134300 ± 6300 molecules
- Saturation (molecules) (H1993 Cells [3]; H1993 cells, average number of MGS molecules internalized per cell at saturation concentration at 1 H): 141600 ± 28200 molecules
- t1/2 (H1993 Cells [3]; H1993 cells, rate of uptake): 12 min
- Specificity (H1993 Cells [3]; ratio of MGS uptake on H1993 vs. normal human bronchial epithelial cell line (HBEC)): 2300
- Molecules Internalized, 6 H (H2009 Cells; H2009 cells, 6 H with constant incubation of 20 nM MGS): 49500 ± 2230 molecules
- Saturation (molecules) (H2009 Cells; H2009 cells, average number of MGS molecules internalized per cell at saturation concentration at 1 H): 68300 ± 3030 molecules
- t1/2 (H2009 Cells; H2009 cells, rate of uptake): 13 min
- Specificity (H2009 Cells; ratio of MGS uptake on H2009 vs. normal human bronchial epithelial cell line (HBEC)): 560
- Molecules Internalized, 6 H (H1299 Cells; H1299 cells, 6 H with constant incubation of 20 nM MGS): 125500 ± 5430 molecules
- Saturation (molecules) (H1299 Cells; H1299 cells, average number of MGS molecules internalized per cell at saturation concentration at 1 H): 112800 ± 15500 molecules
- t1/2 (H1299 Cells; H1299 cells, rate of uptake): 37 min
- Specificity (H1299 Cells; ratio of MGS uptake on H1299 vs. normal human bronchial epithelial cell line (HBEC)): 1400
- Molecules Internalized, 6 H (H358 Cells; H358 cells, 6 H with constant incubation of 20 nM MGS): 97100 ± 4830 molecules
- Saturation (molecules) (H358 Cells; H358 cells, average number of MGS molecules internalized per cell at saturation concentration at 1 H): 99900 ± 9640 molecules
- t1/2 (H358 Cells; H358 cells, rate of uptake): 11 min
- Specificity (H358 Cells; ratio of MGS uptake on H358 vs. normal human bronchial epithelial cell line (HBEC)): 1100

Molecule: MTVCNASQRQAHAQATAVSL (MGS peptide) [MGS_A549.1]
- MSG Code and Cellular Location [1]: MGS_A549.1_Intracellular

Molecule: GPEDTSRAPENQQKTFHRRW (MGS peptide) [MGS_XS52.1]
- MSG Code and Cellular Location (Dendritic Cells): MGS_XS52.1_Intacellular

Molecule: SADWFQGPAEWLLEGWMGPL (MGS peptide) [MGS_H1993.6]
- MSG Code and Cellular Location [1]: MGS_H1993.6_Intracellular

Molecule: EHPWFNMWSWATQVQE (MGS peptide) [MGS_H2009.2]
- MSG Code and Cellular Location [1]: MGS_H2009.2_Lysosome
- Cellular Location [1]: Lysosome

Molecule: FEEFYSRQSNTIPYPQQYKG (MGS peptide) [MGS_H2009.5]
- MSG Code and Cellular Location [1]: MGS_H2009.5_ER/Lysosome

Molecule: FHAVPQSFYTAP (MGS peptide) [MGS_HCC15.2]
- In Vivo Targeting [4]: Yes
- MSG Code and Cellular Location [1]: MGS_HCC15.2_Lysosomal
- Cellular Location [1]: Lysosome

Molecule: YAAWPASGAWTGTAPCSAGT (MGS peptide) [MGS_1299.2]
- In Vivo Targeting [4]: Yes
- MSG Code and Cellular Location [1]: MGS_H1299.2_Intracellular
- Cellular Location [1]: Lysosome

Molecule: VSQTMRQTAVPLLWFWTGSL (MGS peptide) [MGS_H1299.1]
- MSG Code and Cellular Location [1]: MGS_H1299.1_Intracellular

Molecule: LQWRRDDNVHNFGVWARYRL (MGS peptide) [MGS_1299.3]
- In Vivo Targeting [4]: Yes
- MSG Code and Cellular Location [1]: MGS_H1299.3_Autophagosomes
- Cellular Location [1]: Autophagasome

Molecule: MDGATWWTQLDPLLVWEGET (MGS peptide) [MGS_H1993.5]
- MSG Code and Cellular Location [1]: MGS_H1993.5_Intracellular

Molecule: WLSEAGPVVTVRALRGTGSW (MGS peptide) [MGS_PCM.1]
- MSG Code and Cellular Location (Lymphoma Cells): MGS_PCM.1_ Plasma Membrane
- MSG Code and Cellular Location (Cardiomyocytes): MGS_PCM.1_Intracellular

Molecule: ATEPRKQYATPRVFWTDAPG (MGS peptide) [MGS_HCC15.1]
- In Vivo Targeting [4]: Yes
- MSG Code and Cellular Location [1]: MGS_HCC15.1_Intracellular
- Cellular Location [1]: Lysosome

Molecule: RGDLATLRQLAQEDGVVGVR (MGS peptide) [MGS_H2009.1]
- In Vivo Targeting [4]: Yes
- MSG Code and Cellular Location [1]: MGS_H2009.1_Golgi
- Cellular Location [1]: Golgi

Reference: patent US20220380764A1, “MOLECULAR GUIDE SYSTEM PEPTIDES AND USES THEREOF” (SRI International, priority 2019, published 2022)
